Data as given in patent US12077503B2, “Substituted cyclic amides and their use as herbicides” (FMC CORPORATION, priority 2015, dated 2024).

What was measured:
Assay type in all cases: in vivo
[1] = tested on: ryegrass, Italian (Italian ryegrass, Lolium multiflorum); test: Test A postemergence; details: Lolium multiflorum, post-emergence, 240 h, postemergence
How it was run: (§1)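 Visual injury scores from 0, no effect, to 100, complete control, were assigned versus untreated controls roughly 10 d after treatment in the greenhouse. Test chemicals, formulated with surfactant in a non-phytotoxic solvent, were applied to planted seeds as a preemergence soil spray or postemergence to one- to two-leaf plants 2 to 10 cm tall, in loam–sand soil.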

[2] = tested on: blackgrass (Alopecurus myosuroides); test: Test A postemergence; details: Alopecurus myosuroides, post-emergence, 240 h, postemergence
How it was run: as §1

[3] = tested on: giant foxtail (Setaria faberii); test: Test A postemergence; details: Setaria faberi, post-emergence, 240 h, postemergence
How it was run: as §1

[4] = tested on: pigweed (Amaranthus retroflexus); test: Test A postemergence; details: Amaranthus retroflexus, post-emergence, 240 h, postemergence
How it was run: as §1

[5] = tested on: barnyardgrass (Echinochloa crus-galli); test: Test A postemergence; details: Echinochloa crus-galli, post-emergence, 240 h, postemergence
How it was run: as §1

[6] = tested on: ragweed (common ragweed, Ambrosia elatior); test: Test A postemergence; details: Ambrosia artemisiifolia, post-emergence, 240 h, postemergence
How it was run: as §1

[7] = tested on: Galium (catchweed bedstraw, Galium aparine); test: Test A postemergence; details: Galium, post-emergence, 240 h, postemergence
How it was run: as §1

corn (Zea mays) = test: Test A postemergence; details: Zea mays, post-emergence, 240 h, postemergence
How it was run: as §1

[8] = tested on: wheat (Triticum aestivum); test: Test A postemergence; details: Triticum aestivum, post-emergence, 240 h, 125 g ai/ha, postemergence, visual injury vs untreated controls after approx. 10 d; 0 = no effect, 100 = complete control; read-out: Wheat plant response rating (0 to 100 scale)
How it was run: as §1

[9] = tested on: ryegrass, Italian (Italian ryegrass, Lolium multiflorum); test: Test A preemergence; details: Lolium multiflorum, pre-emergence, 240 h, preemergence, 0 to 100 scale where 0 is no effect and 100 is complete control, read-out: Ryegrass, Italian plant response rating
How it was run: as §1

[10] = tested on: giant foxtail (Setaria faberii); test: Test A preemergence; details: Setaria faberi, pre-emergence, 240 h, preemergence, 0 to 100 scale where 0 is no effect and 100 is complete control, read-out: Foxtail, Giant plant response rating
How it was run: as §1

[11] = tested on: pigweed (Amaranthus retroflexus); test: Test A preemergence; details: Amaranthus retroflexus, pre-emergence, 240 h, preemergence, 0 to 100 scale where 0 is no effect and 100 is complete control, read-out: Pigweed plant response rating
[12] = tested on: barnyardgrass (Echinochloa crus-galli); test: Test A preemergence; details: Echinochloa crus-galli, pre-emergence, 240 h, preemergence, 0 to 100 scale where 0 is no effect and 100 is complete control, read-out: Barnyardgrass plant response rating
How it was run: as §1

[13] = tested on: ragweed (common ragweed, Ambrosia elatior); test: Test A preemergence; details: Ambrosia artemisiifolia, pre-emergence, 240 h, preemergence, 0 to 100 scale where 0 is no effect and 100 is complete control, read-out: Ragweed plant response rating
How it was run: as §1

Kochia (Kochia scoparia) = test: Test A preemergence; details: Bassia scoparia, pre-emergence, 240 h, preemergence, 0 to 100 scale where 0 is no effect and 100 is complete control, read-out: Kochia plant response rating
How it was run: as §1

[14] = 125 g ai/ha, visual injury rating, approximately 10 d

Cc1cccc([C@H]2CN(C)C(=O)[C@@H]2C(=O)Nc2cccc(F)c2C)c1 [Compound 1233]
0%: pest or weed control at 125 g/ha ([2]; 125 g ai/ha, visual injury vs untreated controls after approx. 10 d, 0 = no effect, 100 = complete control, read-out: Blackgrass plant response rating (0 to 100 scale)) | pest or weed control at 125 g/ha ([4]; 125 g ai/ha, visual injury vs untreated controls after approx. 10 d, 0 = no effect, 100 = complete control, read-out: Pigweed plant response rating (0 to 100 scale)) | pest or weed control at 125 g/ha ([6]; 125 g ai/ha, visual injury vs untreated controls after approx. 10 d, 0 = no effect, 100 = complete control, read-out: Ragweed plant response rating (0 to 100 scale))
70%: plant injury at 125 g/ha (corn (Zea mays); 125 g ai/ha, visual injury vs untreated controls after approx. 10 d, 0 = no effect, 100 = complete control, read-out: Corn plant response rating (0 to 100 scale)) | pest or weed control at 500 g/ha ([9]; 500 g ai/ha) | pest or weed control at 125 g/ha (Kochia (Kochia scoparia); [14]) | pest or weed control at 500 g/ha (Kochia (Kochia scoparia); 500 g ai/ha)
60%: pest or weed control at 500 g/ha ([7]; 500 g ai/ha, 0 to 100 scale, 0 is no effect, 100 is complete control, read-out: Galium plant response rating)
30%: pest or weed control at 500 g/ha ([6]; 500 g ai/ha, 0 to 100 scale, 0 is no effect, 100 is complete control, read-out: Ragweed plant response rating) | pest or weed control at 125 g/ha [13, 14]
50%: pest or weed control at 500 g/ha ([1]; 500 g ai/ha, 0 to 100 scale, 0 is no effect, 100 is complete control, read-out: Ryegrass, Italian plant response rating) | pest or weed control at 500 g/ha ([13]; 500 g ai/ha)
40%: pest or weed control at 125 g/ha ([1]; 125 g ai/ha, visual injury vs untreated controls after approx. 10 d, 0 = no effect, 100 = complete control, read-out: Ryegrass, Italian plant response rating (0 to 100 scale)) | pest or weed control at 500 g/ha ([2]; 500 g ai/ha, 0 to 100 scale, 0 is no effect, 100 is complete control, read-out: Blackgrass plant response rating) | plant injury at 125 g/ha [8] | pest or weed control at 125 g/ha [9, 14] | pest or weed control at 125 g/ha [11, 14] | pest or weed control at 500 g/ha ([11]; 500 g ai/ha)
20%: pest or weed control at 500 g/ha ([4]; 500 g ai/ha, 0 to 100 scale, 0 is no effect, 100 is complete control, read-out: Pigweed plant response rating) | pest or weed control at 125 g/ha ([7]; 125 g ai/ha, visual injury vs untreated controls after approx. 10 d, 0 = no effect, 100 = complete control, read-out: Galium plant response rating (0 to 100 scale))
90%: pest or weed control at 500 g/ha ([3]; 500 g ai/ha, 0 to 100 scale, 0 is no effect, 100 is complete control, read-out: Foxtail, Giant plant response rating) | pest or weed control at 125 g/ha [10, 14] | pest or weed control at 500 g/ha ([10]; 500 g ai/ha) | pest or weed control at 125 g/ha [12, 14] | pest or weed control at 500 g/ha ([12]; 500 g ai/ha)
80%: pest or weed control at 125 g/ha ([3]; 125 g ai/ha, visual injury vs untreated controls after approx. 10 d, 0 = no effect, 100 = complete control, read-out: Foxtail, Giant plant response rating (0 to 100 scale)) | pest or weed control at 125 g/ha ([5]; 125 g ai/ha, visual injury vs untreated controls after approx. 10 d, 0 = no effect, 100 = complete control, read-out: Barnyardgrass plant response rating (0 to 100 scale)) | pest or weed control at 500 g/ha ([5]; 500 g ai/ha, 0 to 100 scale, 0 is no effect, 100 is complete control, read-out: Barnyardgrass plant response rating) | plant injury at 500 g/ha (corn (Zea mays); 500 g ai/ha, 0 to 100 scale, 0 is no effect, 100 is complete control, read-out: Corn plant response rating)
